Reference: patent publication US5877165A, “Boronated porhyrins and methods for their use” (priority 1997, dated 1999)

Tests used:
[1] = Toxicity testing of NiTCP, MnTCP and CuTCP in normal mice (Example 13, Table 3); type: in vivo, BALB/c mice; settings: 4 days after last of 6 ip injections
Experimental: Levels of glucose [GLU], blood urea nitrogen [BUN], blood creatinine [BCR], alanine transaminase [ALT], aspartate transaminase [AST], alkaline phosphatase [ALP], total protein [TPR], albumin [ALB], and creatine phosphokinase [CPK] were determined in blood plasma using a Cobas Fara II microanalysis system. Blood platelets [PLT] and white blood cells [WBC] were counted using a Serono-Baker System 9000 automated hematology microanalyzer.
Compounds prepared as in Example 1B and 1C were formulated with 6% Cremophor EL [CRM] and 12% propylene glycol [PrG] in saline. Total doses of MnTCP and CuTCP of 174 and 223 μg/g body weight, respectively, were administered to normal BALB/c mice. Each mouse was given 6 intraperitoneal [ip] injections over a period of 32 hours. Mice were euthanized 4 days after the last injection and chemical, enzymatic and hematological analyses of their blood were compared to those of similar mice given NiTCP at a dose of 252 μg/g body weight.

EMT-6 mammary tumors = test: Experiment III: boron concentrations in tissues, mice bearing EMT-6 tumors (Table 8); parameters: species or system BALB/c mice; settings: mouse, in vivo, ip, 183 mg/kg
Experimental: Lipophilic porphyrins 1, 2, 4, 5, and 6 were injected as emulsions in either 3% or 9% CRM and either 6% or 18% PRG with saline as previously described in Example 2 above. Water soluble porphyrins 3 and 7 were dissolved in saline. BPA was solubilized as a fructose complex.
Female BALB/c mice (from Taconic Farms, Germantown, N.Y.) (20-25 g) were implanted with either KHJJ or EMT-6 tumors according to the procedure described in Example 3A above.
(§1) Under deep halothane anesthesia leading to euthanasia, right ventricular blood was collected in Microtainer (Becton-Dickinson, Rutherford, N.J.) tubes containing EDTA for hematological analyses and boron assays of whole blood and in Microtainer™ tubes containing lithium heparin for chemical analyses and enzyme assays of blood plasma. Tumor, brain, fat, muscle, and liver tissues were sampled at necropsy for boron analyses.
In Experiment III, NiTCP and NiTCP-H were compared in mice bearing EMT-6 mammary tumors. Each porphyrin was administered via 6 i.p. injections over a period of 32 hours and the mice were euthanized 39 hours and 90 hours after the last injection.
Hematological, chemical and enzymatic tests were carried out as described in Example 3 above. Nonparametric statistical analyses were carried out using the Wilcoxon Two-Sample Test in accordance with procedures described in Slatkin, D.N., 1995. Boron analyses were conducted in accordance with the procedure described in Example 3 above. Fat and liver tissues were assayed for ^10 B by prompt-gamma spectroscopy as described in Fairchild, et al., 1986. These measurements were multiplied by 5.0 to give total boron concentrations due to the use of boron of natural isotope abundance in the syntheses of all boronated porphyrins reported.

KHJJ mammary carcinomas = test: Boron biodistribution, mice with KHJJ mammary carcinomas (Examples 4-7, Table 1); type: in vivo, BALB/c mice; settings: mouse, in vivo; for Boron Concentration: Blood / Boron Concentration: Brain / Boron Concentration: Tumor: ip, 160 mg/kg
Experimental: Female BALB/c mice (Taconic Farms, Germantown, N.Y.) (20-25 g) were implanted with either KHJJ or EMT-6 tumors. For KHJJ tumors, 1-3 mm^3 tumor fragments were implanted subcutaneously (s.c.) in the dorsal thorax of each mouse using an 18-gauge trocar. For EMT-6 tumors, 2.5×10^5 cells were implanted similarly using a 27-gauge needle. EMT-6 tumor cells were grown alternately in vivo and in vitro. Single-cell suspensions were prepared from mouse-grown tumors by trypsinization. These were grown in cell culture for several passages and then were frozen in 10% DMSO and stored in liquid nitrogen. Prior to implantation in mice, the cells were thawed and grown in tissue culture in Alpha-MEM with 10% FBS for several passages.
as §1
Direct current plasma-atomic emission spectroscopy [DCP-AES] (ARL/Fisons Model SS-7) was used (detection limit: 0.1 μg/ml). Samples (50-130 mg) were digested at 60° C. with sulfuric acid:nitric acid (1:1). Triton X-100 and water were added to give final concentrations of ≈50 mg tissue/ml, 15% total acid v/v and 5% Triton X-100 v/v. Fat and liver tissues were assayed for ^10 B by prompt-gamma spectroscopy (Fairchild, et al., 1986). The prompt-gamma measurements were multiplied by 5.0 to give the total boron concentrations due to the use of boron of natural isotope abundance in the syntheses of all boronated porphyrins reported.
Seven mice having KHJJ mammary carcinomas were given one intraperitoneal (i.p.) injection of 900 μg/g body weight of the boron compound presently used for BNCT of malignant brain tumors, p-boronophenylalanine (BPA) complexed with fructose. BPA was prepared in accordance with procedure described in Coderre, et al., 1996 incorporated herein by reference in its entirety as if set forth in full.
Mice were euthanized during the collection of blood while under Halothane anesthesia. At necropsy, the apparent states of structural integrity, consistency, color or abnormality, if any, of tissues were observed and tumor, brain and liver tissues were collected from each mouse for boron analysis.
Eight mice having KHJJ mammary carcinomas were injected with the NiTCP solution in the amount of 160 μg NiTCP/g body weight (36 μgB/g body weight) in six i.p. injections over 20 hours.
(§2) Six hours after the mice were last injected with NiTCP, mice were euthanized during the collection of blood while under Halothane anesthesia and right ventricular blood was collected from each mouse for hematological and chemical analysis without pooling the samples. At necropsy, the apparent states of structural integrity, consistency, color, or abnormality, if any, of tissues were observed and tumor, brain and liver tissues were collected from each mouse for boron analysis without pooling the samples.
Seven mice having KHJJ mammary carcinomas were injected with the NiTCP solution in the amount of 160 μg NiTCP/g body weight (36 μgB/g body weight) in six i.p. injections over 20 hours.
as §2, with “Sixteen hours” for “Six hours”, “were” for “were last”, “boron analysis. […]” for “boron analysis without pooling the samples.”

[2] = total doses up to 272 μg/gbw, n>80 mice (Miura et al., 1996); cited from earlier work

## Nickel Tetracarboranylphenylporphyrin [NiTCP]
[1]
  toxicity / thrombocytopenia, in words: nontoxic
EMT-6 mammary tumors; 39 h
  Boron concentration, Blood: 2.8 (0.8-11.4) μg B/g
  Boron concentration, Brain: 1.6 (1.0-2.5) μg B/g
  Boron concentration, Liver: 201 (162-251) μg B/g
  Boron concentration, Tumor: 40 (26-73) μg B/g
EMT-6 mammary tumors; 90 h
  Boron concentration, Blood: 0.3 (0.1-0.3) μg B/g
  Boron concentration, Brain: 4.2 (1.3-6.0) μg B/g
  Boron concentration, Liver: 226 (176-284) μg B/g
KHJJ mammary carcinomas
  boron delivered to tumor relative to BPA: twice the amount of boron to tumor than that of BPA
KHJJ mammary carcinomas; 16 h
  Boron Concentration: Blood: 13.2 (4.2-30.5) μg B/g
  Boron Concentration: Brain: 3.8 (2.4-5.0) μg B/g
  Boron Concentration: Tumor: 25.5 (16.2-38.7) μg B/g
KHJJ mammary carcinomas; 78 h
  Boron Concentration: Blood: 0.2 (0.4-5.8) μg B/g
  Boron Concentration: Brain: 1.7 (0.1-0.2) μg B/g
  Boron Concentration: Tumor: 17.0 (9.2-28.2) μg B/g
[2]
  mortality and toxicity, in words: no mortality (n>80) nor any substantial toxicity
